Assay [1] concerns the target T1, MAGL (Homo sapiens, UniProt Q99685).
T1 sequence (Q99685 1-303): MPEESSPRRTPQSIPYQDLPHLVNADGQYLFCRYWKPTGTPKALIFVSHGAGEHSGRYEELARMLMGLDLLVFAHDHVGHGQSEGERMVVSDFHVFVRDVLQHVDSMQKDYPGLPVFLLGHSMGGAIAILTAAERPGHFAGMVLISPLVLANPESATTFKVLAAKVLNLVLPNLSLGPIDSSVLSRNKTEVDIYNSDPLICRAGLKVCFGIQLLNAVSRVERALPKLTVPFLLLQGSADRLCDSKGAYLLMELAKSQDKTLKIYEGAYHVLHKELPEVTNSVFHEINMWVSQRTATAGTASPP
The experiment in a line: In vitro competitive substrate hydrolysis enzyme activity assay (pNPA), HEK293 cell lysates. Details: expressed in transfected cells; host or cells: HEK293. The class given is biochemical. The conditions noted are these: HEK293 lysate. The method, then:
HEK293 cell lysates expressing recombinant human MAGL enzyme and 4-nitrophenyl acetate (pNPA) substrate were diluted separately in 50 mM HEPES (pH 7.0) containing 200 mM KCl and 1 mM EDTA. Lysates (50 μL, ˜1.2 μg total protein) were preincubated with varying concentrations of inhibitors at 25° C. After 30 min, 2×pNPA substrate (50 μL, 2.5 mM) was added and the rate of substrate turnover was monitored by measuring the increase in absorbance at wavelength 405 nm for 20 minutes at 25° C. using a Biotek Neo2 plate reader. The mean velocity was converted to percent enzyme activity following background subtraction and normalization to DMSO controls. IC50 values were determined by fitting percent enzyme activities to a non-linear regression, 4-parameter, sigmoidal dose response function in Prism GraphPad.

Assay [2] addresses T1, MAGL. The experiment in a line: In vitro competitive activity-based protein profiling, PC3 human cell membrane proteomes. The class given is biochemical. Details: endogenous in cells; host or cells: PC3 human cells (membrane proteome). Conditions: human PC3 membrane proteome; for inhibition at 1 µM: read-out: MAGL % inh. 1 μM (human PC3). The method, then:
PC3 human cell membrane proteomes (50 μL, 2.0 mg/mL total protein concentration) were preincubated with varying concentrations of inhibitors at 37° C. After 30 min, the ABPP probe JW912-Bodipy (1.0 μL, 50 μM in DMSO) was added and the mixture was incubated for 30 min at room temperature. Reactions were quenched with SDS loading buffer (15 μL-4×) and run on SDS-PAGE. Following gel imaging, serine hydrolase activity was determined by measuring fluorescent intensity of gel bands corresponding to MAGL using ImageJ 1.43u software. Intensities were converted to percent enzyme activity by normalizing to DMSO controls. IC50 values were determined by fitting percent enzyme activities to a non-linear regression, 4-parameter, sigmoidal dose response function in Prism GraphPad.

The structures appear in SMILES notation.

By IC50 is commonly meant the midpoint of a concentration-inhibition curve. A higher IC50 goes with weaker potency in that assay. For `O=C(OC(C(F)(F)F)C(F)(F)F)N1CCC2(CC1)CC2C(=O)N1CCc2ncncc2C1` (single isomer, unassigned) [Example 61, 1,1,1,3,3,3-hexafluoropropan-2-yl (R or S)-1-(5,6,7,8-tetrahydropyrido[4,3-d]pyrimidine-6-carbonyl)-6-azaspiro[2.5]octane-6-carboxylate], on MAGL [1], the half-maximal inhibitory concentration (IC50) was determined as 0.684 µM. That is a sub-micromolar value.
On the same count and under the same terms, with `O=C(Nc1cncc(Cl)c1)C1CC12CCN(C(=O)OC(C(F)(F)F)C(F)(F)F)CC2` (single isomer, unassigned) [Example 67, 1,1,1,3,3,3-hexafluoropropan-2-yl (R or S)-1-((5-chloropyridin-3-yl)carbamoyl)-6-azaspiro[2.5]octane-6-carboxylate] the figure was 0.0485 µM.
For the compound `O=C(NC(=O)C1CC12CCN(C(=O)OC(C(F)(F)F)C(F)(F)F)CC2)C1CCCCC1` (single isomer, unassigned) [Example 91, 1,1,1,3,3,3-hexafluoropropan-2-yl (R or S)-1-((cyclohexanecarbonyl)carbamoyl)-6-azaspiro[2.5]octane-6-carboxylate], the IC50 is 0.00599 µM at MAGL [1] and 0.0037 µM on MAGL [2].
Consider `O=C(Nc1ccc(C(F)(F)F)nc1)C1CC12CCN(C(=O)OC(C(F)(F)F)C(F)(F)F)CC2` (single isomer, unassigned) [Example 78, 1,1,1,3,3,3-hexafluoropropan-2-yl (R or S)-1-((6-(trifluoromethyl)pyridin-3-yl)carbamoyl)-6-azaspiro[2.5]octane-6-carboxylate], for which the IC50 at MAGL [1] turned out to be 0.00299 µM; on MAGL [2], 0.008 µM.
With `O=C(OC(C(F)(F)F)C(F)(F)F)N1CCC2(CC1)CC2C(=O)N1CCn2cc(C(F)(F)F)nc2C1` (single isomer, unassigned) [Example 51, 1,1,1,3,3,3-hexafluoropropan-2-yl (R or S)-1-(2-(trifluoromethyl)-5,6,7,8-tetrahydroimidazo[1,2-a]pyrazine-7-carbonyl)-6-azaspiro[2.5]octane-6-carboxylate], the results for the IC50 on MAGL [1] and on MAGL [2] were 0.0232 µM and 0.0048 µM, respectively. In addition, the inhibition at 1 µM at MAGL [2] worked out at 100%.
With `O=C(Nc1cnccn1)C1CC12CCN(C(=O)OC(C(F)(F)F)C(F)(F)F)CC2` (single isomer, unassigned) [Example 55, 1,1,1,3,3,3-hexafluoropropan-2-yl (R or S)-1-(pyrazin-2-ylcarbamoyl)-6-azaspiro[2.5]octane-6-carboxylate], on MAGL [1], the IC50 amounted to 0.028 µM.
As for `O=C(Nc1cccnc1C(F)(F)F)C1CC12CCN(C(=O)OC(C(F)(F)F)C(F)(F)F)CC2` (single isomer, unassigned) [Example 85, 1,1,1,3,3,3-hexafluoropropan-2-yl (R or S)-1-((2-(trifluoromethyl)pyridin-3-yl)carbamoyl)-6-azaspiro[2.5]octane-6-carboxylate], the IC50 on MAGL [1] was determined as 0.167 µM; at MAGL [2], 0.099 µM.
As to `O=C(OC(C(F)(F)F)C(F)(F)F)N1CCC2(CC1)CC2C(=O)N1CCn2ccnc2C1` (racemic) [Example 186, 1,1,1,3,3,3-hexafluoropropan-2-yl (+)1-(5,6,7,8-tetrahydroimidazo[1,2-a]pyrazine-7-carbonyl)-6-azaspiro[2.5]octane-6-carboxylate], the IC50 at MAGL [1] is 0.168 µM. The inhibition at 1 µM at MAGL [2] is 100%.
Take `O=C(OC(C(F)(F)F)C(F)(F)F)N1CCC2(CC1)CC2C(=O)N1CCc2ncncc2C1` (single isomer, unassigned) [Example 60, 1,1,1,3,3,3-hexafluoropropan-2-yl (R or S)-1-(5,6,7,8-tetrahydropyrido[4,3-d]pyrimidine-6-carbonyl)-6-azaspiro[2.5]octane-6-carboxylate]: the results for the half-maximal inhibitory concentration (IC50) on MAGL [1] and on MAGL [2] were 0.0854 µM and 0.036 µM, respectively.
Regarding `O=C(Nc1ccnc(C(F)(F)F)n1)[C@@H]1CC12CCN(C(=O)OC(C(F)(F)F)C(F)(F)F)CC2` (single isomer, unassigned) [Example 18], at MAGL [1], the IC50 is 0.053 µM. Besides, on MAGL [2], the inhibition at 1 µM was found to be 100% and the IC50 was 0.039 µM.
`O=C(Nc1cncc(F)c1)C1CC12CCN(C(=O)OC(C(F)(F)F)C(F)(F)F)CC2` (single isomer, unassigned) [Example 39, 1,1,1,3,3,3-hexafluoropropan-2-yl (R or S)-1-((5-fluoropyridin-3-yl)carbamoyl)-6-azaspiro[2.5]octane-6-carboxylate]: the IC50 on MAGL [1] came to 0.319 µM. At MAGL [2], the inhibition at 1 µM turned out to be 90% and the half-maximal inhibitory concentration (IC50) turned out to be 0.29 µM.
In turn, `Cc1ccc(NC(=O)C2CC23CCN(C(=O)OC(C(F)(F)F)C(F)(F)F)CC3)cn1` (single isomer, unassigned) [Example 82, 1,1,1,3,3,3-hexafluoropropan-2-yl (R or S)-1-((6-methylpyridin-3-yl)carbamoyl)-6-azaspiro[2.5]octane-6-carboxylate] had an IC50 at MAGL [1] of 0.118 µM.
`O=C(Nc1cnc(C(F)(F)F)nc1)C1CC12CCN(C(=O)OC(C(F)(F)F)C(F)(F)F)CC2` (single isomer, unassigned) [Example 100, 1,1,1,3,3,3-hexafluoropropan-2-yl (R or S)-1-((2-(trifluoromethyl)pyrimidin-5-yl)carbamoyl)-6-azaspiro[2.5]octane-6-carboxylate] had an IC50 on MAGL [1] of 0.736 µM.
Consider `Cc1ncccc1NC(=O)C1CC12CCN(C(=O)OC(C(F)(F)F)C(F)(F)F)CC2` (single isomer, unassigned) [Example 70, 1,1,1,3,3,3-hexafluoropropan-2-yl (R or S)-1-((2-methylpyridin-3-yl)carbamoyl)-6-azaspiro[2.5]octane-6-carboxylate], for which, at MAGL [1], the IC50 came to 0.985 µM. The IC50 values of the last two compounds are within 1.5-fold of each other.
As for `O=C(Nc1cccc(C(F)(F)F)n1)C1CC12CCN(C(=O)OC(C(F)(F)F)C(F)(F)F)CC2` (single isomer, unassigned) [Example 73, 1,1,1,3,3,3-hexafluoropropan-2-yl (R or S)-1-((6-(trifluoromethyl)pyridin-2-yl)carbamoyl)-6-azaspiro[2.5]octane-6-carboxylate], the IC50 at MAGL [1] worked out at 0.0003 µM. Compared with the last compound, the IC50 is about 3300-fold lower.
Regarding `O=C(OC(C(F)(F)F)C(F)(F)F)N1CCC2(CC1)CC2C(=O)N1CCc2nc(C3CC3)ncc2C1` (single isomer, unassigned) [Example 64, 1,1,1,3,3,3-hexafluoropropan-2-yl (R or S)-1-(2-cyclopropyl-5,6,7,8-tetrahydropyrido[4,3-d]pyrimidine-6-carbonyl)-6-azaspiro[2.5]octane-6-carboxylate], the IC50 on MAGL [1] was 0.103 µM.
For the compound `O=C(Nc1ccc(C(F)(F)F)nc1)C1CC12CCN(C(=O)OC(C(F)(F)F)C(F)(F)F)CC2` (single isomer, unassigned) [Example 79, 1,1,1,3,3,3-hexafluoropropan-2-yl (R or S)-1-((6-(trifluoromethyl)pyridin-3-yl)carbamoyl)-6-azaspiro[2.5]octane-6-carboxylate], the IC50 on MAGL [1] turned out to be 0.851 µM.
The compound `Cc1ncccc1NC(=O)C1CC12CCN(C(=O)OC(C(F)(F)F)C(F)(F)F)CC2` (single isomer, unassigned) [Example 69, 1,1,1,3,3,3-hexafluoropropan-2-yl (R or S)-1-((2-methylpyridin-3-yl)carbamoyl)-6-azaspiro[2.5]octane-6-carboxylate] gave an IC50 at MAGL [1] of 0.0136 µM. This IC50 is about 63-fold lower than that of the compound before.
Still for that read-out and setting: with `O=C(Nc1ccccn1)C1CC12CCN(C(=O)OC(C(F)(F)F)C(F)(F)F)CC2` (single isomer, unassigned) [Example 49, 1,1,1,3,3,3-hexafluoropropan-2-yl (R or S)-1-(pyridin-2-ylcarbamoyl)-6-azaspiro[2.5]octane-6-carboxylate] the figure was 0.003 µM; with `O=C(OC(C(F)(F)F)C(F)(F)F)N1CCC2(CC1)CC2C(=O)N1CCn2cc(C(F)(F)F)nc2C1` (single isomer, unassigned) [Example 52, 1,1,1,3,3,3-hexafluoropropan-2-yl (R or S)-1-(2-(trifluoromethyl)-5,6,7,8-tetrahydroimidazo[1,2-a]pyrazine-7-carbonyl)-6-azaspiro[2.5]octane-6-carboxylate], 0.155 µM; with `CN(C(=O)C1CC12CCN(C(=O)OC(C(F)(F)F)C(F)(F)F)CC2)c1ccccn1` (single isomer, unassigned) [Example 46, 1,1,1,3,3,3-hexafluoropropan-2-yl (R or S)-1-(methyl(pyridin-2-yl)carbamoyl)-6-azaspiro[2.5]octane-6-carboxylate], 0.133 µM.

Source of the values: patent US20240018120A1, “MAGL INHIBITORS” (H. LUNDBECK A/S, priority 2020, published 2024).
